Results published in US20220305136A1, “ANTI-CTLA4 CONJUGATES” (Ascendis Pharma Oncology Division A/S, priority 2019, published 2022).

Assays:
[1] = Plasma pharmacokinetics of CTLA-4 mAB in Wistar rats; type: in vivo; details: n=3
Procedure: This study was performed in order to investigate the plasma pharmacokinetics of CTLA-4 mAB in Wistar rats following subcutaneous administration of transient CTLA-4 mAB-linker-hydrogel prodrug 29b or following subcutaneous or intravenous administration of free CTLA-4 mAB. Animals (n=3 per group) received either a single SC injection of a 29b (1 mg/kg CTLA-4 mAB equivalents) in the neck region or a single SC injection in the neck region or IV injection in the tail vein of an CTLA-4 mAB formulation (1 mg/kg CTLA-4 mAB). At selected time points, 200 μL blood were collected in L^1-Heparin tubes and processed to plasma by centrifugation at 3,000 g for 10 minutes at 4° C.
CTLA-4 mAB concentrations in rat plasma were determined with a commercial ELISA setup obtained from BioVision Inc. (CA, USA, order number E4384-100). The manufacturer's instructions were followed with minor changes to the protocol. Specifically, the plasma samples were used undiluted (except for samples above the upper limit of quantification which were diluted with blank plasma prior to the measurement) and the sample incubation time was prolonged to 60 minutes.
Calibration standards of CTLA-4 mAB in blank plasma were prepared as follows: thawed L^1-Heparin Wistar rat plasma was homogenized. The free CTLA-4 mAB formulation was spiked into blank plasma at concentrations between 5,000 ng/mL and 50 ng/mL with additional higher and lower anchor points. These solutions were used for the generation of a calibration curve. Calibration curves were analyzed via a 4-parameter logarithmic fit and 1/Y^2 weighted. The determined CTLA-4 mAB plasma concentrations are depicted in Table 1.

MC38 tumor cells [2] = experiment: In vivo anti-tumor efficacy, MC38 tumor bearing mice (Example 28); set-up: species or system C57BL/6 mice with the human CTLA-4 gene knocked in; details: CTLA-4 mAB 4 x 210 μg intraperitoneal days 0, 4, 8, 12, 29b single 840 μg intratumoral
Procedure: The study was conducted in female C57BL/6 mice with the human CTLA-4 gene knocked into the endogenous CTLA-4 locus with an age of 6-11 weeks at the day of tumor inoculation. This model is also known as a Human Genetically Engineered Mouse Model or HuGEMM. Mice were subcutaneously implanted with 1×10^6 MC38 tumor cells in the right flank. When tumors to be injected were grown to a mean tumor volume of ˜65 mm^3, mice were randomized into treatment cohorts (day 0) and treated with either: 1) a single 50 μL intratumoral injection of control hydrogel 30 or 2) a single 50 μL intratumoral injection of 840 μg of CTLA-4 mAB-linker-hydrogel prodrug 29b or 3) four total 200 μL intraperitoneal doses of 210 μg given on Days 0, 4, 8, and 12 of CTLA-4 mAB. Hydrogels were administered as suspensions in 20 mM succinate, 135 mM NaCl, 0.01% Tween-20, pH 4.0 buffer. Following treatment initiation, anti-tumor efficacy was assessed by determination of tumor volumes at various time points from tumor size measurements with a caliper. Tumor volumes were calculated according to the formula:
Tumor volume=(L×W^2)×0.5 where L is the length of the tumor and W the width (both in mm). Mice were removed from the study once tumors were greater than 3000 mm^3.

MC38 tumor cells [3] = experiment: In vivo anti-tumor efficacy, MC38 tumor bearing mice (Example 33); set-up: species or system C57BL/6 mice with the human CTLA4 gene knocked in
Procedure: The study was conducted in female C57BL/6 mice with the human CTLA4 gene knocked into the endogenous CTLA4 locus with an age of 6-11 weeks at the day of tumor inoculation. This model is also known as a Human Genetically Engineered Mouse Model or HuGEMM. Mice were subcutaneously implanted with 1×10^6 MC38 tumor cells in the right flank. When tumors to be injected were grown to a mean tumor volume of ˜65 mm^3, mice were randomized into treatment cohorts (day 0) and treated with either: 1) a single 50 μL intratumoral injection of control hydrogel 30 or 2) four total 200 μL intraperitoneal doses of 18 μg given on days 0, 4, 8, and 12 of free CTLA-4 mAB, or 3) a single 50 μL intratumoral injection of 840 μg of CTLA-4 mAB-linker-hydrogel prodrug 29b or 3) a single 50 μL intratumoral injection of 72 μg of CTLA-4 mAB-linker-hydrogel prodrug 29c. […] Following treatment initiation, anti-tumor efficacy was assessed by determination of tumor volumes at various time points from tumor size measurements with a caliper. Tumor volumes were calculated according to the formula: Tumor volume=(L×W^2)×0.5 where L is the length of the tumor and W the width (both in mm). […] Percent tumor growth inhibition (TGI) was calculated according to the formula: [1−(Mean Tumor Volume in treated animals)/(Mean Tumor Volume in control animals)]*100.

tumor immune cells = experiment: Flow cytometric profiling of tumor immune cells; type: in vivo, C57BL/6 mice with the human CTLA4 gene knocked in; details: day 7
Procedure: (§1) The study was conducted in female C57BL/6 mice with the human CTLA4 gene knocked into the endogenous CTLA4 locus with an age of 6-11 weeks at the day of tumor inoculation. This model is also known as a Human Genetically Engineered Mouse Model or HuGEMM. Mice were subcutaneously implanted with 1×10^6 MC38 tumor cells in the right flank. When tumors to be injected were grown to a mean tumor volume of ˜65 mm^3, mice were randomized into treatment cohorts (day 0) and treated with either: 1) a single 50 μL intratumoral injection of control hydrogel 30 or 2) four total 200 μL intraperitoneal doses of 18 μg given on days 0, 4, 8, and 12 of free CTLA-4 mAB, or 3) a single 50 μL intratumoral injection of 840 μg of CTLA-4 mAB-linker-hydrogel prodrug 29b or 3) a single 50 μL intratumoral injection of 72 μg of CTLA-4 mAB-linker-hydrogel prodrug 29c. Hydrogels were administered as suspensions in 20 mM succinate, 135 mM NaCl, 0.01% Tween20, pH 4.0 buffer.
Mice were sacrificed 7 days after randomization (D0). Following sacrifice, blood, spleen and tumor were isolated. Spleen samples were dissociated mechanically to generate single suspensions. Tumor samples were enzymatically and mechanically dissociated to generate single cell suspensions. Cell suspensions from spleen and tumor were centrifuged at 300 g for 5 minutes and 2×10^6 cells were used for staining. For whole blood, approximately 100 μL was used for staining. Cells were resuspended in FACS buffer with 1 μg/ml Fc-Block and incubated at 4° C. for 10 minutes in the dark. Surface marker antibody mixtures in FACS buffer were added to each sample and samples were incubated in the dark at 4° C. for 30 minutes. Red blood cell lysis buffer (Bio-gems) was added if needed and cells were further incubated at 4° C. for 10 minutes. Cells were washed twice with FACS buffer then fixed and permeabilized for 30 minutes at room temperature with Fix/Perm buffer (eBioscience). Cells were washed twice in Permeabilization Buffer and stained with intracellular antibodies in Permeabilization buffer for 30 minutes at room temperature. Cells were washed twice in FACS buffer and acquired in the presence of 123count Ebeads (eBioscience). After collection, FACS data was analyzed using FlowJo Version 10.6.1. Compensation was digitally adjusted using single antibody-stained beads, single antibody-stained cells, and fluorescence minus one (FMO) controls. CD4^+ T cells were gated as live, intact CD45+ CD3+ CD4+ events. Tregs were gated as the CD25+ FOXP3+ subset of CD4 T cells. […] The change in the mean percentage of positive cells for indicated populations relative to control treatment was calculated by the formula: mean percentage of positive cells in treated animals—mean percentage of positive cells in control treated animals.

blood immune cells = experiment: Flow cytometric profiling of blood immune cells; type: in vivo, C57BL/6 mice with the human CTLA4 gene knocked in; details: day 7; doses as E70
Procedure: as §1
(§2) Mice were sacrificed 7 days after randomization (D0). Following sacrifice, blood, spleen and tumor were isolated. Spleen samples were dissociated mechanically to generate single suspensions. Tumor samples were enzymatically and mechanically dissociated to generate single cell suspensions. Cell suspensions from spleen and tumor were centrifuged at 300 g for 5 minutes and 2×10^6 cells were used for staining. For whole blood, approximately 100 μL was used for staining. Cells were resuspended in FACS buffer with 1 μg/ml Fc-Block and incubated at 4° C. for 10 minutes in the dark. Surface marker antibody mixtures in FACS buffer were added to each sample and samples were incubated in the dark at 4° C. for 30 minutes. Red blood cell lysis buffer (Bio-gems) was added if needed and cells were further incubated at 4° C. for 10 minutes. Cells were washed twice with FACS buffer then fixed and permeabilized for 30 minutes at room temperature with Fix/Perm buffer (eBioscience). Cells were washed twice in Permeabilization Buffer and stained with intracellular antibodies in Permeabilization buffer for 30 minutes at room temperature. Cells were washed twice in FACS buffer and acquired in the presence of 123count Ebeads (eBioscience). After collection, FACS data was analyzed using FlowJo Version 10.6.1. Compensation was digitally adjusted using single antibody-stained beads, single antibody-stained cells, and fluorescence minus one (FMO) controls. CD4^+ T cells were gated as live, intact CD45+ CD3+ CD4+ events. Tregs were gated as the CD25+ FOXP3+ subset of CD4 T cells. CD8^+ T cells were gated as live, intact CD45+ CD3+ CD8+ events. Subgates were then defined using the controls mentioned above. The change in the mean percentage of positive cells for indicated populations relative to control treatment was calculated by the formula: mean percentage of positive cells in treated animals—mean percentage of positive cells in control treated animals.

spleen immune cells = experiment: Flow cytometric profiling of spleen immune cells; type: in vivo, C57BL/6 mice with the human CTLA4 gene knocked in; details: day 7; doses as E70
Procedure: as §1, §2

## CTLA-4 mAB: Monoclonal antibody CTLA-4 mAB (AMO-M6104, CAS No. 477202-00-9) obtained from AbMole Bioscience Inc.
[1]; 1 h, 1 mg/kg CTLA-4 mAB (equivalents), subcutaneous, LLOQ 50 ng/mL
  mean CTLA-4 mAB plasma concentration: 170 ng/mL
[1]; 1 h, 1 mg/kg intravenous
  mean CTLA-4 mAB plasma concentration: 18000 ng/mL
[1]; 4 h, 1 mg/kg CTLA-4 mAB (equivalents), subcutaneous, LLOQ 50 ng/mL
  mean CTLA-4 mAB plasma concentration: 600 ng/mL
[1]; 4 h, 1 mg/kg intravenous
  mean CTLA-4 mAB plasma concentration: 14000 ng/mL
[1]; 24 h, 1 mg/kg CTLA-4 mAB (equivalents), subcutaneous
  mean CTLA-4 mAB plasma concentration: 3700 ng/mL
[1]; 24 h, 1 mg/kg intravenous
  mean CTLA-4 mAB plasma concentration: 9600 ng/mL
[1]; 32 h, 1 mg/kg CTLA-4 mAB (equivalents), subcutaneous
  mean CTLA-4 mAB plasma concentration: 4800 ng/mL
[1]; 32 h, 1 mg/kg intravenous
  mean CTLA-4 mAB plasma concentration: 7500 ng/mL
[1]; 48 h, 1 mg/kg CTLA-4 mAB (equivalents), subcutaneous
  mean CTLA-4 mAB plasma concentration: 6200 ng/mL
[1]; 48 h, 1 mg/kg intravenous
  mean CTLA-4 mAB plasma concentration: 6000 ng/mL
[1]; 72 h, 1 mg/kg CTLA-4 mAB (equivalents), subcutaneous
  mean CTLA-4 mAB plasma concentration: 6900 ng/mL
[1]; 72 h, 1 mg/kg intravenous
  mean CTLA-4 mAB plasma concentration: 4900 ng/mL
[1]; 96 h, 1 mg/kg CTLA-4 mAB (equivalents), subcutaneous
  mean CTLA-4 mAB plasma concentration: 6100 ng/mL
[1]; 96 h, 1 mg/kg intravenous
  mean CTLA-4 mAB plasma concentration: 4000 ng/mL
[1]; 168 h, 1 mg/kg CTLA-4 mAB (equivalents), subcutaneous
  mean CTLA-4 mAB plasma concentration: 5700 ng/mL
[1]; 168 h, 1 mg/kg intravenous
  mean CTLA-4 mAB plasma concentration: 3100 ng/mL
MC38 tumor cells [2]
  Mean Tumor Volume (mm3) Day 20: 60.5 mm3
MC38 tumor cells [3]; day 20, vs control hydrogel 30, doses as E66
  Percent Tumor Growth Inhibition: 97.3%
MC38 tumor cells [3]; day 20, CTLA-4 mAB 4 x 18 μg intraperitoneal days 0, 4, 8, 12, 29b single 840 μg intratumoral, 29c single 72 μg intratumoral
  Mean Tumor Volume (mm3): 57.1 mm3
Tumor immune cells; CTLA-4 mAB 18 μg doses IP, 29b 840 μg IT, 29c 72 μg IT
  Increase in Percentage Positive from control hydrogel 30: Tumor CD44++ CD62L− of CD4s: 10.73%
Tumor immune cells; doses as E70
  Increase in Percentage Positive from control hydrogel 30: Tumor CD44++ CD62L− of CD8s: 6.51%
  Increase in Percentage Positive from control hydrogel 30: Tumor CD69+ of CD4s: 2.37%
  Increase in Percentage Positive from control hydrogel 30: Tumor ICOS+ of CD4s: 13.77%
Blood immune cells
  Increase in Percentage Positive from control hydrogel 30: Blood CD4 of T: 0.53%
  Increase in Percentage Positive from control hydrogel 30: Blood CD25+ of CD4: 2.88%
  Increase in Percentage Positive from control hydrogel 30: Blood CD44++ CD62L− of CD4s: 15.28%
  Increase in Percentage Positive from control hydrogel 30: Blood CD69+ of CD4: 3.35%
  Increase in Percentage Positive from control hydrogel 30: Blood CD69+ of Treg: 3.69%
  Increase in Percentage Positive from control hydrogel 30: Blood ICOS+ of CD4s: 18.80%
  Increase in Percentage Positive from control hydrogel 30: Blood ICOS+ of CD8s: 9.26%
  Increase in Percentage Positive from control hydrogel 30: Blood Ki67+ of CD4s: 14.64%
  Increase in Percentage Positive from control hydrogel 30: Blood Treg of CD4: 2.22%
Spleen immune cells
  Increase in Percentage Positive from control hydrogel 30: Spleen CD4 of T: 4.90%
  Increase in Percentage Positive from control hydrogel 30: Spleen CD25+ of CD4: 4.38%
  Increase in Percentage Positive from control hydrogel 30: Spleen CD69+ of CD4: 8.33%
  Increase in Percentage Positive from control hydrogel 30: Spleen CD69+ of Treg: 9.17%
  Increase in Percentage Positive from control hydrogel 30: Spleen ICOS+ of CD8s: 3.18%
  Increase in Percentage Positive from control hydrogel 30: Spleen Ki67+ of CD4s: 11.75%
  Increase in Percentage Positive from control hydrogel 30: Spleen Ki67+ of Tregs: 16.97%
  Increase in Percentage Positive from control hydrogel 30: Spleen Treg of CD4: 6.64%
